These compounds were tested against T1, CYP21 (steroid 21-hydroxylase) (Homo sapiens, UniProt P08686) (assay: Inhibition of human CYP21 transfected in HEK293 cells assessed as decrease in conversion of progesterone to 11-deoxycorticosterone preincubated for 5 hrs followed by progesterone addition measured after 20 hrs by ELISA). Conditions: HEK293 cells transfected with human CYP21, probe progesterone.
T1 sequence (P08686 whole entry): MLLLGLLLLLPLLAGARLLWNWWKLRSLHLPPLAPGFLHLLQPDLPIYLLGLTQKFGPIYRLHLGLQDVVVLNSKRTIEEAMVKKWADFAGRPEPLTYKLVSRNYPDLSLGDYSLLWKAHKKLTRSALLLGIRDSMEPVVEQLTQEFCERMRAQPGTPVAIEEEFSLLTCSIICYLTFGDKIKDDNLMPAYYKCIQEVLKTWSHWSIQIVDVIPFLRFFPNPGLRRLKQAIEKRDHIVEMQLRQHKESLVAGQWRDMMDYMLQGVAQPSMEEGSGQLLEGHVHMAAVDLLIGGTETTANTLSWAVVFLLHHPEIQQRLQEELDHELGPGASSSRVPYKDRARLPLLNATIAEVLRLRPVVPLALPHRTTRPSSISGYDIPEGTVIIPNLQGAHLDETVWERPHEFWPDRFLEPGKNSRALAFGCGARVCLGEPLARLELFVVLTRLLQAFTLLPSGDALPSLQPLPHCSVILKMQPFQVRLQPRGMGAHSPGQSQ
Type: cell-based
Set-up: concentration or dose not given beside the values
Work on `CC1(C)C(=O)CC[C@@]2(C)C1=CC[C@@H]1[C@@H]2CC[C@]2(C)C(c3cccnc3)=CC[C@@H]12` yielded an inhibition at 20 h of less than 10%.
`CCc1cncc(C2=CC[C@H]3[C@@H]4CC[C@H]5C[C@@H](OC)CC[C@]5(C)[C@H]4CC[C@]23C)c1` was tested, and the inhibition at 20 h was 10 to 50%.
`CCc1ccncc1C1=CC=C2[C@@H]3CCC4CC(=O)CC[C@]4(C)[C@H]3CC[C@]12C` (stereo not given in full) gave an inhibition at 20 h of 10 to 50%.
Work on `C[C@]12CC[C@H]3[C@@H](CC=C4C[C@@H](OC(=O)Nc5cccnc5)CC[C@@]43C)C1=CC=C2c1cccnc1` yielded an inhibition at 20 h of 10 to 50%.
For `CNC1CC[C@@]2(C)C(CCC3[C@@H]2CC[C@]2(C)C(c4cncc(C)c4)=CC[C@@H]32)C1` (single isomer, unassigned), the inhibition at 20 h was 10 to 50%.
`Cc1ccncc1C1=CC=C2[C@@H]3CCC4CC(=O)CC[C@]4(C)[C@H]3CC[C@]12C` (stereo not given in full) gave an inhibition at 20 h of 10 to 50%.
Compound `CC(=O)N(C)[C@H]1CC[C@@]2(C)C(CC[C@@H]3[C@@H]2CC[C@]2(C)C(c4cncc(C)c4)=CC[C@@H]32)C1` (stereo not given in full) has an inhibition at 20 h of 10 to 50%.
`CC1(O)C=C2CC[C@@H]3[C@H](CC[C@]4(C)C(c5cccnc5)=CC[C@@H]34)[C@@]2(C)CC1` (stereo not given in full) gave an inhibition at 20 h of 10 to 50%.
Work on `Cc1ccccc1C(=O)O[C@H]1CC[C@@]2(C)C(=CC[C@H]3C4=CC=C(c5cccnc5)[C@@]4(C)CC[C@@H]32)C1` yielded an inhibition at 20 h of 10 to 50%.
`CC1C(=O)CC[C@@]2(C)C1CC[C@@H]1[C@@H]2CC[C@]2(C)C(c3cccnc3)=CC[C@@H]12` (stereo not given in full) gave an inhibition at 20 h of 10 to 50%.
`C[C@]12CC[C@@H](NC(=O)c3nccs3)CC1=CC[C@@H]1[C@@H]2CC[C@]2(C)C(n3ccnc3)=CC[C@@H]12` showed an inhibition at 20 h of 10 to 50%.
With `CCc1ccncc1C1=CC=C2[C@@H]3CCC4CNC(=O)CC[C@]4(C)[C@H]3CC[C@]12C` (stereo not given in full) the inhibition at 20 h was 10 to 50%.
`C[C@]12CC[C@H](O)CC1CC[C@@H]1[C@@H]2CC[C@]2(C)C(c3ccc[n+]([O-])c3)CC[C@@H]12` (stereo not given in full) showed an inhibition at 20 h of 10 to 50%.
For `C[C@]1(O)CC[C@@]2(C)C(=CC[C@@H]3[C@@H]2CC[C@]2(C)C(c4cncc(F)c4)=CC[C@@H]32)C1`, the inhibition at 20 h was 10 to 50%.
With `CC(C)(C)NC(=O)O[C@H]1CC[C@@]2(C)C(=CC[C@H]3C4=CC=C(c5cccnc5)[C@@]4(C)CC[C@@H]32)C1` the inhibition at 20 h was 10 to 50%.
In the case of `Cc1ccncc1C1=CC=C2C3CCC4C[C@@H](O)CC[C@]4(C)C3CC[C@]12C` (stereo not given in full), the inhibition at 20 h is reported as 10 to 50%.
`C[C@@]1(O)CC[C@@]2(C)C(CC[C@@H]3[C@@H]2CC[C@]2(C)C(c4cncc(Cl)c4)=CC[C@@H]32)C1` (stereo not given in full) was tested, and the inhibition at 20 h was 10 to 50%.
In the case of `Cc1cnc(F)c(C2=CC[C@H]3[C@@H]4CCC5=CC(=O)CC[C@]5(C)[C@H]4CC[C@]23C)c1`, the inhibition at 20 h is reported as 10 to 50%.
For `C[C@]12CCC(N)CC1CC[C@@H]1[C@@H]2CC[C@]2(C)C(c3cccnc3)=CC[C@@H]12` (single isomer, unassigned), the inhibition at 20 h was 10 to 50%.
Compound `CC1C[C@H]2C3=CC=C(c4cncc(C(F)F)c4)[C@@]3(C)CC[C@@H]2[C@@]2(C)CCNC(=O)C=C12` (stereo not given in full) has an inhibition at 20 h of less than 10%.
With `C[C@]12CCC(=O)C=C1C(c1ccccc1)C[C@@H]1[C@@H]2CC[C@]2(C)C(c3cccnc3)=CC[C@@H]12` (stereo not given in full) the inhibition at 20 h was less than 10%.
`C[C@]12CC[C@@H](NS(=O)(=O)C3CC3)CC1=CC[C@@H]1[C@@H]2CC[C@]2(C)C(c3cccnc3)=CC[C@@H]12` showed an inhibition at 20 h of 10 to 50%.
`COC(=O)c1cncn1C1=CC[C@H]2[C@@H]3CC=C4C[C@@H](O)CC[C@]4(C)[C@H]3CC[C@]12C` gave an inhibition at 20 h of 10 to 50%.
Compound `CCNC(=O)NC1CC[C@@]2(C)C(=CC[C@@H]3[C@@H]2CC[C@]2(C)C(c4cncc(OC)c4)=CC[C@@H]32)C1` (stereo not given in full) has an inhibition at 20 h of 10 to 50%.
Compound `CC(=O)NC1CC[C@@]2(C)C(CC[C@@H]3[C@@H]2CC[C@]2(C)C(c4cccnc4)=CC[C@@H]32)C1C` (stereo not given in full) has an inhibition at 20 h of less than 10%.
For `CC1(O)CC2CC[C@@H]3C(CC[C@]4(C)C(c5cccnc5)=CC[C@@H]34)[C@@]2(C)C1` (single isomer, unassigned), the inhibition at 20 h was 10 to 50%.
In the case of `C[C@]12CC[C@H](O)CC1CC[C@@H]1[C@@H]2CC[C@]2(C)C(c3cccnc3)CC[C@@H]12` (stereo not given in full), the inhibition at 20 h is reported as less than 10%.
`CC(C)(C)C(=O)N[C@@H]1CC[C@@]2(C)C(CC[C@@H]3[C@@H]2CC[C@]2(C)C(c4cccnc4)=CC[C@@H]32)C1` (stereo not given in full) gave an inhibition at 20 h of 10 to 50%.
Work on `C[C@]12CCC3(CCC(=O)O3)CC1CC[C@@H]1[C@@H]2CC[C@]2(C)C(c3cccnc3)=CC[C@@H]12` (stereo not given in full) yielded an inhibition at 20 h of less than 10%.
`CN1CCC(C(=O)O[C@H]2CC[C@@]3(C)C(=CC[C@H]4C5=CC=C(c6cccnc6)[C@@]5(C)CC[C@@H]43)C2)CC1` was tested, and the inhibition at 20 h was 10 to 50%.
`CCc1ccncc1C1=CC=C2[C@@H]3CCC4C[C@@H](OC(C)=O)CC[C@]4(C)[C@H]3CC[C@]12C` (stereo not given in full) showed an inhibition at 20 h of 10 to 50%.
Compound `CO[C@H]1CC[C@@]2(C)C(=CC[C@@H]3[C@@H]2CC[C@]2(C)C(n4ccnc4)=CC[C@@H]32)C1` has an inhibition at 20 h of 10 to 50%.
For `CCNC(=O)N[C@@H]1CC[C@@]2(C)C(=CC[C@@H]3[C@@H]2CC[C@]2(C)C(c4cncc(F)c4)=CC[C@@H]32)C1`, the inhibition at 20 h was 10 to 50%.
`CCNC(=O)NC1CC[C@@]2(C)C(CC[C@@H]3[C@@H]2CC[C@]2(C)C(c4cccnc4)=CC[C@@H]32)C1C` (stereo not given in full) was tested, and the inhibition at 20 h was less than 10%.
`C[C@]12CC/C(=N\O)C=C1C(F)C[C@@H]1[C@@H]2CC[C@]2(C)C(c3cccnc3)=CC[C@@H]12` (stereo not given in full) showed an inhibition at 20 h of 10 to 50%.
Work on `C[C@]12CC[C@H]3[C@@H](CCC4=CC(=O)CC[C@@]43C)C1=CC=C2c1ccc(F)nc1` yielded an inhibition at 20 h of 10 to 50%.
In the case of `C[C@]12CCNC(=O)CC1CCC1C2CC[C@]2(C)C(c3cncc(C(F)F)c3)=CCC12` (stereo not given in full), the inhibition at 20 h is reported as no less than 50%.
Compound `CC(CO)(CO)C(=O)O[C@H]1CC[C@@]2(C)C(=CC[C@H]3C4=CC=C(c5cccnc5)[C@@]4(C)CC[C@@H]32)C1` has an inhibition at 20 h of less than 10%.
With `CC1C[C@@H]2[C@H](CC[C@]3(C)C(c4cncc(C(F)F)c4)=CC[C@@H]23)[C@@]2(C)CCC(=O)C=C12` (stereo not given in full) the inhibition at 20 h was 10 to 50%.
Compound `Cc1ccncc1C1=CC=C2[C@@H]3CC[C@H]4CNC(=O)CC[C@]4(C)[C@H]3CC[C@]12C` has an inhibition at 20 h of 10 to 50%.
`C[C@]12CCC(=O)C=C1C(C1CC1)C[C@@H]1[C@@H]2CC[C@]2(C)C(c3cncc(F)c3)=CC[C@@H]12` (stereo not given in full) was tested, and the inhibition at 20 h was 10 to 50%.
`C[C@]12CC(F)(F)CC1CC[C@@H]1[C@@H]2CC[C@]2(C)C(c3cccnc3)=CC[C@@H]12` (stereo not given in full) was tested, and the inhibition at 20 h was 10 to 50%.
Compound `CC1=C2CC[C@@H]3[C@H](CC[C@]4(C)C(c5cccnc5)=CC[C@@H]34)[C@@]2(C)CC/C1=N\O` has an inhibition at 20 h of 10 to 50%.
Compound `CC(C)C(=O)O[C@H]1CC[C@@]2(C)C(=CC[C@H]3C4=CC=C(c5cccnc5)[C@@]4(C)CC[C@@H]32)C1` has an inhibition at 20 h of 10 to 50%.
Compound `CC(=O)O[C@H]1CC[C@@]2(C)C(CC[C@H]3C4=CC=C(c5cnccc5C)[C@@]4(C)CC[C@@H]32)C1` (stereo not given in full) has an inhibition at 20 h of 10 to 50%.
Compound `CN1C(=O)CC[C@@]2(C)C1=CC[C@@H]1[C@@H]2CC[C@]2(C)C(c3cncc(C(F)F)c3)=CC[C@@H]12` has an inhibition at 20 h of less than 10%.
`CC1C[C@@H]2[C@H](CC[C@]3(C)C(c4cncc(C(F)F)c4)=CC[C@@H]23)[C@@]2(C)C=CC(=O)C=C12` (stereo not given in full) was tested, and the inhibition at 20 h was 10 to 50%.
For `Cc1cnc(F)c(C2=CC[C@H]3[C@@H]4CC=C5C[C@@H](O)CC[C@]5(C)[C@H]4CC[C@]23C)c1`, the inhibition at 20 h was 10 to 50%.
Work on `CC1C(O)CC[C@@]2(C)C1CC[C@@H]1[C@@H]2CC[C@]2(C)C(c3cncc(C(F)F)c3)=CC[C@@H]12` (stereo not given in full) yielded an inhibition at 20 h of less than 10%.
In the case of `C[C@]12CC[C@H]3[C@@H](CC4OC45C[C@@H](O)CC[C@]35C)C1=CC=C2c1cccnc1` (stereo not given in full), the inhibition at 20 h is reported as no less than 50%.
In the case of `CC1C[C@@]2(C)C(CC[C@@H]3[C@@H]2CC[C@]2(C)C(c4cccnc4)=CC[C@@H]32)C(C)C1O` (stereo not given in full), the inhibition at 20 h is reported as 10 to 50%.
`C[C@]12CC[C@@H](N=[N+]=[N-])CC1CC[C@@H]1[C@@H]2CC[C@]2(C)C(c3cccnc3)=CC[C@@H]12` (stereo not given in full) gave an inhibition at 20 h of 10 to 50%.
`C[C@]12CC[C@H]3[C@@H](CC(=O)C45CC4CC[C@]35C)C1=CC=C2c1cccnc1` (stereo not given in full) was tested, and the inhibition at 20 h was no less than 50%.
For `CC(=O)Nc1cncc(C2=CC[C@H]3[C@@H]4CC=C5C[C@@H](O)CC[C@]5(C)[C@H]4CC[C@]23C)c1`, the inhibition at 20 h was less than 10%.
In the case of `C[C@]12CC(O)CC1CC[C@@H]1[C@@H]2CC[C@]2(C)C(c3cncc(Cl)c3)=CC[C@@H]12` (stereo not given in full), the inhibition at 20 h is reported as 10 to 50%.

From ChEMBL document CHEMBL3882724 (2013)
